Assay results from patent US20050118624A1, “Fluorescent probes for ribosomes and method of use” (Cumbre Inc., priority 2003, published 2005).

Columns and labels:
70S Ribosome [1] = assay: Fluorescence polarization titration of probe binding affinity and kinetics; set-up: species or system E. coli; details: for binding affinity compared with Probe 203 / binding kinetics compared with Probe 203: summarized in FIG. 39
70S Ribosome [2] = assay: Fluorescence polarization competition with Probe 203 bound to ribosomes; assay type: binding, E. coli; details: for IC50: compound titrated 400 μM to 1.5 nM, ribosome 150-200% above Kd, read-out: IC50 for competing out Probe 203

| Molecule | binding affinity compared with Probe 203 (70S Ribosome [1]; fluorescence polarization) | binding kinetics compared with Probe 203 (70S Ribosome [1]; fluorescence polarization) | IC50 (70S Ribosome [2]) [µM] | also measured |
| --- | --- | --- | --- | --- |
| 4″-Bodipy FL-aminoethylcarbamate clarithromycin [Probe 242] | greater affinity | even slower kinetics |  |  |
| 9-(4,4-difluoro-5,7-dimethyl-4-bora-3a,4a-diaza-s-indacene-3-propionyl)-amino-erythromycin [Probe 203] |  |  |  | incubation time to reach binding equilibrium (70S Ribosome [1]; fluorescence polarization read at various time points): greater than a half hour; affinity for ribosomes compared with values reported in the literature for the parent erythromycin (70S Ribosome [1]; fluorescence polarization, ribosome titration 1650 nM to 0.4 nM, buffer with 20% glycerol): slightly reduced affinity |
| 9-benzyloxycarbonylamino-4″-Bodipy FL aminoethylcarbamate erythromycin [Probe 238] | greater affinity | even slower kinetics |  |  |
| COc1ccc(C[C@H](N)C(=O)N[C@H]2[C@@H](O)[C@H](n3cnc4c(N(C)C)ncnc43)O[C@@H]2CO)cc1 [puromycin] |  |  |  | competition with Probe 203 (70S Ribosome [2]; antibiotic binding to more distant region of the ribosome): did not show competition |
| CC[C@H]1OC(=O)[C@H](C)[C@@H](O[C@H]2C[C@@](C)(OC)[C@@H](O)[C@H](C)O2)[C@H](C)[C@@H](O[C@@H]2O[C@H](C)C[C@H](N(C)C)[C@H]2O)[C@](C)(O)C[C@@H](C)C(=O)[C@H](C)[C@@H](O)[C@]1(C)O [Erythromycin] |  |  | 0.03 |  |
| O=C(N[C@H](CO)[C@H](O)c1ccc([N+](=O)[O-])cc1)C(Cl)Cl [Chloramphenicol] |  |  | 19 |  |
